Experimental data published in US8461328B2, “Tricyclic heterocyclic compounds, compositions and methods of use thereof” (Genentech, Inc., priority 2010, dated 2013).

Tests used:
Type in all cases: biochemical
[1] = molecular target: T1, JAK1 (Homo sapiens, UniProt P23458); assay: JAK1 inhibition (Table 4); details: read-out: JAK1 Ki
T1 construct: made in house; host or cells: SF9 insect cells (baculovirus)

[2] = molecular target: T2, JAK3 (Homo sapiens, UniProt P52333); assay: JAK3 inhibition (Table 4); details: read-out: JAK3 Ki
T2 construct: made in house; host or cells: SF9 insect cells (baculovirus)
T2 sequence (P52333 783-1124): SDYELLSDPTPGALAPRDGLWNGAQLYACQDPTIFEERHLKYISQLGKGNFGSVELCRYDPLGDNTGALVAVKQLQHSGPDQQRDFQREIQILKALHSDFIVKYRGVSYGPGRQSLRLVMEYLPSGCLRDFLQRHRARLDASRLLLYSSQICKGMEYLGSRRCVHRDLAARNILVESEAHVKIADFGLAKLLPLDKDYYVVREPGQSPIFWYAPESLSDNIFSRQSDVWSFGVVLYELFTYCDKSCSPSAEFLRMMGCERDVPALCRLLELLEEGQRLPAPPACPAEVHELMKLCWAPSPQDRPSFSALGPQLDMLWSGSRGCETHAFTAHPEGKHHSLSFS

[3] = molecular target: T3, JAK2 (Homo sapiens, UniProt O60674); assay: JAK2 inhibition (Table 4); details: read-out: JAK2 Ki
T3 construct: made in house; host or cells: SF9 insect cells (baculovirus)
T3 sequence (O60674 812-1132): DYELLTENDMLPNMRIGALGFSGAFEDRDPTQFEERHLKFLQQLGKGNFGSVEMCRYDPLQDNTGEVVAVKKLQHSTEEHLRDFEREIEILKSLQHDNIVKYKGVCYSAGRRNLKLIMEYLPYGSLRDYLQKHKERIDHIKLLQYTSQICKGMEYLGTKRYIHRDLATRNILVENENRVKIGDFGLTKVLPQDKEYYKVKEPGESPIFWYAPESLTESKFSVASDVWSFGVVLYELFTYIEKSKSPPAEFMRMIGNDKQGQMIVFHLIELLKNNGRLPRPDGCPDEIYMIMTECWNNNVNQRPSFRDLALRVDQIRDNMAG

[4] = molecular target: T4, TYK2 (Homo sapiens, UniProt P29597); assay: TYK2 inhibition (Table 4)
T4 construct: made in house; host or cells: SF9 insect cells (baculovirus)
T4 sequence (P29597 873-1187): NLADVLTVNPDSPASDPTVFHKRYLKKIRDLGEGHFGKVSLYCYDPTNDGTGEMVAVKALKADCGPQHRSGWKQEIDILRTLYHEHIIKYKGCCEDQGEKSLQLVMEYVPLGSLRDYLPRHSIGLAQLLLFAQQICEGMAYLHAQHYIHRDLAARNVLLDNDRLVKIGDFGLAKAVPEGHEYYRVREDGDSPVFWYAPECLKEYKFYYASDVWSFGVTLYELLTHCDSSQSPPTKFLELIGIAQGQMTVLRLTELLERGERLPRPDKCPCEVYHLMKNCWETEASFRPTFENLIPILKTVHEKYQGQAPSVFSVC

T1 sequence (P23458 852-1154): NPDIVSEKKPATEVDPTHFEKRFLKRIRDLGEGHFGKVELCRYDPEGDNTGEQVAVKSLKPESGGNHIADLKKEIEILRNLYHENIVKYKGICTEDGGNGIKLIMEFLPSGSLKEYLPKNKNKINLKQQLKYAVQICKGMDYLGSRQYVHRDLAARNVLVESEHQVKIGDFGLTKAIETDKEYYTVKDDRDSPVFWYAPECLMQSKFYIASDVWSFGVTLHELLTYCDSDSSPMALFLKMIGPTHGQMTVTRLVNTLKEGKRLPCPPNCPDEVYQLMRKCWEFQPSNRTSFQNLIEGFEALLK

| SMILES | Ki [1] [nM] | Ki [2] [nM] | Ki [3] [nM] | Ki [4] [nM] |
| --- | --- | --- | --- | --- |
| O=C([C@H]1CC[C@H](n2nnc3cnc4[nH]ccc4c32)CC1)N1CCOCC1 [Example 246, Morpholin-4-yl-[4-(6H-1,2,3,5,6-pentaaza-as-indacen-1-yl)-cyclohexyl]-methanone] | 164 | 652 | 183 | 1620 |
| O=C([C@H]1CCCN1)N1CCC(n2cnc3cnc4[nH]ccc4c32)CC1 [Example 248, (R)-Pyrrolidin-2-yl-[4-(6H-1,3,5,6-tetraaza-as-indacen-1-yl)-piperidin-1-yl]-methanone] | 216 | 1160 | 342 | 3190 |
| O=C([C@@H]1CCCN1)N1CCC(n2cnc3cnc4[nH]ccc4c32)CC1 [Example 249, (S)-Pyrrolidin-2-yl-[4-(6H-1,3,5,6-tetraaza-as-indacen-1-yl)-piperidin-1-yl]-methanone] | 48.6 | 1180 | 365 | 1110 |
| FC(F)(F)c1nc2cnc3[nH]ccc3c2n1C1CCNCC1 [Example 254, 1-Piperidin-4-yl-2-trifluoromethyl-1,6-dihydro-1,3,5,6-tetraaza-as-indacene] | 69.5 | 234 | 568 | 1500 |
| c1cc2c(ncc3ncn(CC4CCNCC4)c32)[nH]1 [Example 255, 1-Piperidin-4-ylmethyl-1,6-dihydro-1,3,5,6-tetraaza-as-indacene] | 278 | 479 | 490 | 1120 |
| NC(=O)Cc1nc2cnc3[nH]ccc3c2n1C1CCNCC1 [Example 260, 2-(1-Piperidin-4-yl-1,6-dihydro-1,3,5,6-tetraaza-as-indacen-2-yl)-acetamide] | 41.6 | 302 | 847 | 795 |
| CC(C)NC(=O)Cc1nc2cnc3[nH]ccc3c2n1C1CCNCC1 [Example 261, N-Isopropyl-2-(1-piperidin-4-yl-1,6-dihydro-1,3,5,6-tetraaza-as-indacen-2-yl)-acetamide] | 39 | 108 | 426 | 678 |
| CN(C(=O)Cc1nc2cnc3[nH]ccc3c2n1C1CCN(CCC#N)CC1)C1CCCC1 [Example 263, 2-{1-[1-(2-Cyano-ethyl)-piperidin-4-yl]-1,6-dihydro-1,3,5,6-tetraaza-as-indacen-2-yl}-N-cyclopentyl-N-methyl-acetamide] | 55.3 | 19.1 | 152 | 401 |
| O=C(Cc1nc2cnc3[nH]ccc3c2n1C1CCNCC1)N1CC(F)(F)C1 [Example 269, 1-(3,3-Difluoro-azetidin-1-yl)-2-(1-piperidin-4-yl-1,6-dihydro-1,3,5,6-tetraaza-as-indacen-2-yl)-ethanone] | 84.4 | 245 | 1310 | 1700 |
| N#CCCN1CCC(n2c(CC(=O)N3CCCC3)nc3cnc4[nH]ccc4c32)CC1 [Example 270, 3-{4-[2-(2-Oxo-2-pyrrolidin-1-yl-ethyl)-6H-1,3,5,6-tetraaza-as-indacen-1-yl]-piperidin-1-yl}-propionitrile] | 36.1 | 15.1 | 121 | 352 |
| Cc1nc2cnc3[nH]ccc3c2n1[C@@H]1C[C@H]2CC[C@@H](C1)N2Cc1ccccc1 [Example 271, 1-(8-Benzyl-8-aza-bicyclo[3.2.1]oct-3-yl)-2-methyl-1,6-dihydro-1,3,5,6-tetraaza-as-indacene] | 17.4 | 60.4 | 12.4 | 302 |

Further compounds by falling Ki [1], results first:

| Ki [1] [nM] | Ki [2] [nM] | Ki [3] [nM] | Ki [4] [nM] | SMILES |
| --- | --- | --- | --- | --- |
| 32.2 | 245 | 136 | 358 | CC(C)NC(=O)[C@H]1CC[C@H](n2cnc3cnc4[nH]ccc4c32)CC1 [Example 247, 4-(6H-1,3,5,6-Tetraaza-as-indacen-1-yl)-cyclohexanecarboxylic acid isopropylamide] |
| 29.7 | 66.1 | 406 | 570 | O=C(Cc1nc2cnc3[nH]ccc3c2n1C1CCNCC1)NC1CCCC1 [Example 265, N-Cyclopentyl-2-(1-piperidin-4-yl-1,6-dihydro-1,3,5,6-tetraaza-as-indacen-2-yl)-acetamide] |
| 29 | 336 | 64.7 | 300 | O=C([C@@H]1CC(F)(F)CN1)N1CCC(n2cnc3cnc4[nH]ccc4c32)CC1 [Example 250, ((S)-4,4-Difluoro-pyrrolidin-2-yl)-[4-(6H-1,3,5,6-tetraaza-as-indacen-1-yl)-piperidin-1-yl]-methanone] |
| 28.8 | 14.4 | 125 | 1810 | O=C(Cc1nc2cnc3[nH]ccc3c2n1C1CCN(Cc2ccccc2)CC1)N1CC(F)C1 [Example 258, 2-[1-(1-Benzyl-piperidin-4-yl)-1,6-dihydro-1,3,5,6-tetraaza-as-indacen-2-yl)-1-(3-fluoro-azetidin-1-yl)-ethanone] |
| 27.8 | 11.7 | 95.3 | 1850 | O=C(Cc1nc2cnc3[nH]ccc3c2n1C1CCN(Cc2ccccc2)CC1)N1CC(F)(F)C1 [Example 259, 2-[1-(1-Benzyl-piperidin-4-yl)-1,6-dihydro-1,3,5,6-tetraaza-as-indacen-2-yl)-1-(3,3-difluoro-azetidin-1-yl)-ethanone] |
| 21.2 | 96.5 | 663 | 165 | O=C(Cc1nc2cnc3[nH]ccc3c2n1C1CCNCC1)N1CCS(=O)(=O)CC1 [Example 262, 1-(1,1-Dioxo-1lambda*6*-thiomorpholin-4-yl)-2-(1-piperidin-4-yl-1,6-dihydro-1,3,5,6-tetraaza-as-indacen-2-yl)-ethanone] |
| 7.86 | 9.96 | 9.21 | 68.8 | N#CCCN1CCC(n2c(C(F)(F)F)nc3cnc4[nH]ccc4c32)CC1 [Example 256, 3-[4-(-2-Trifluoromethyl-6H-1,3,5,6-tetraaza-as-indacen-1-yl)-piperidin-1-yl]-propionitrile] |
| 7.52 | 7.02 | 55.6 | 63.2 | N#CCCN1CCC(n2c(CC(=O)N3CCS(=O)(=O)CC3)nc3cnc4[nH]ccc4c32)CC1 [Example 267, 3-(4-{2-[2-(1,1-Dioxo-1lambda*6*-thiomorpholin-4-yl)-2-oxo-ethyl]-6H-1,3,5,6-tetraaza-as-indacen-1-yl}-piperidin-1-yl)-propionitrile] |
| 5.32 | 14.1 | 26.7 | 63.4 | N#CCCN1CCC(n2c(CC(N)=O)nc3cnc4[nH]ccc4c32)CC1 [Example 264, 2-{1-[1-(2-Cyano-ethy)-piperidin-4-yl]-1,6-dihydro-1,3,5,6-tetraaza-as-indacen-2-yl}-acetamide] |
| 5.26 | 7.87 | 17.2 | 120 | CC(C)NC(=O)Cc1nc2cnc3[nH]ccc3c2n1C1CCN(CCC#N)CC1 [Example 266, 2-{1-[1-(2-Cyano-ethyl)-piperidin-4-yl]-1,6-dihydro-1,3,5,6-tetraaza-as-indacen-2-yl}-N-isopropyl-acetamide] |
| 5.06 | 7.5 | 16.1 | 120 | N#CCCN1CCC(n2c(CC(=O)NC3CCCC3)nc3cnc4[nH]ccc4c32)CC1 [Example 268, 2-{1-[1-(2-Cyano-ethyl)-piperidin-4-yl]-1,6-dihydro-1,3,5,6-tetraaza-as-indacen-2-yl}-N-cyclopentyl-acetamide] |
